Measured values published in the supplement of paper PMC11997997.

Legend:
[1] = tested on: murine bone marrow-derived macrophages; test: area under cytotoxicity dose-response curve (AUC (% cytotoxicity x dose, relative)); higher = more cytotoxic; details: duration: 6 days; dose range: 0.13-80 uM, 8 points
In short: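 Primary murine bone marrow-derived macrophages in opaque 384-well plates were exposed to an 8-point, 2.5-fold dilution series (final 80–0.13 μM) for 6 days at 37 °C in 5% CO2. Viability was read with Promega's CellTiter-Glo luminescence assay, and percent cytotoxicity was normalised to vehicle and positive control wells. Cytotoxicity is reported as the area under the dose–response curve, calculated in GraphPad Prism version 10.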

[2] = tested on: Mycobacterium tuberculosis CDC1551 (intracellular, in murine BMDM); test: area under intracellular growth-inhibition dose-response curve (AUC (% inhibition x dose, relative)); higher = more potent; details: duration: 6 days; dose range: 0.13-80 uM, 8 points
In short: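 Macrophages derived from primary murine bone marrow were infected for 1 h at multiplicity of infection 1 with luciferase-expressing M. tuberculosis CDC1551, then treated for 6 days at final concentrations of 80–0.13 μM. Bright-Glo luciferin signal, normalised to a reference drug control and the lowest-concentration wells, gave the growth readout. Area under the growth-inhibition dose–response curve was then calculated in GraphPad Prism.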

SMILES | area under cytotoxicity dose-response curve [1] | area under intracellular growth-inhibition dose-response curve [2]
Cc1nn(C(C)C(=O)NC2C(=O)N3C(C(=O)O)=C(CSc4nnnn4C)CSC23)cc1Cl (stereo not given) | 9.03 | 194
Cn1nc([N+](=O)[O-])nc1Oc1ccc(C(C)(C)C)cc1 | 40.1 | 206
COc1ccc(CNc2nc3nc(C)c(Cl)c(O)n3n2)cc1 | 9.37 | 186
CC(=O)c1cc(NC(=O)c2ccccc2)c(=O)oc1/C=C/N(C)C | 30.2 | 160
O=C(N/N=C/c1ccccc1Cl)c1ccncc1 | 69.2 | 234
COc1cc(/C=N\NC(=O)c2sc(N)nc2C)cc(OC)c1OC | 140 | 35.1
O=C(N/N=C/c1ccc(Sc2nc3ccccc3[nH]2)o1)c1ccncc1 | 34.4 | 269
COC(=O)c1ccc(COc2ccc(/C=N/NC(N)=S)cc2)o1 | 50.5 | 277
NC(=S)N/N=C1\CCOc2ccc(Cl)cc21 | 31.5 | 179
Cc1ccccc1OCC(=O)NC(=S)Nc1ccc(N2CCCC2)cc1 | 105 | 182
CCCc1ccc(C(=O)CCC(=O)NNC(=O)c2ccncc2)cc1 | 9.69 | 270
Cc1cc(C)cc(NC(=O)NC2CCCCCCC2)c1 | 109 | 198
CC(C)CCNC(=O)CSc1nc(O)c2ccccc2n1 | 40.4 | 27.8
Cc1nnc(SCC2=C(C(=O)O)N3C(=O)C(NC(=O)COc4ccc(F)cc4)C3SC2)s1 (stereo not given) | 2.64 | 212
O=C(NCc1ccc2c(c1)OCO2)c1cccc(F)c1 | < 0 | 222
c1ccc2c(c1)-c1cccc3cncc-2c13 | 36.8 | 200
CC(C)(C)c1csc(N/N=C/c2ccc(O)cc2)n1 | 19.1 | 235
CCN(C(=O)COC(=O)c1nc(Cl)ccc1Cl)c1c(N)n(Cc2ccccc2)c(=O)[nH]c1=O | 73 | 28.6
COc1c(N2C[C@@H]3CCCN[C@@H]3C2)c(F)cc2c(=O)c(C(=O)O)cn(C3CC3)c12.Cl | 62.8 | 269
CC(/C=C/c1ccccc1)=N\NC(N)=S | 31.1 | 266

SMILES | area under cytotoxicity dose-response curve [1] | area under intracellular growth-inhibition dose-response curve [2]
Cc1nnc(NS(=O)(=O)c2ccc(N)cc2)s1 | 29.3 | 121
NC(=S)N/N=C/c1ccc(-n2nncc2-c2ccc(Cl)cc2)cc1 | 47.7 | 216
O=C(Nc1ccc(N2CCN(C(=O)c3ccccc3)CC2)cc1)c1ccc([N+](=O)[O-])o1 | 24.1 | 127
Nc1ccc(C(=O)[O-])c(O)c1.O.[Na+] | 0.704 | 184
COc1cc(/C=C/C(=O)c2ccc([N+](=O)[O-])o2)ccc1O | 107 | 76
COc1ccc(CCNC2=C(Cl)C(=O)N(CCc3ccc(OC)c(OC)c3)C2=O)cc1OC | 92.7 | 66.8
Br.CCCc1cc(-c2nc(-c3ccc(Cl)cc3)cs2)ccn1 | 78.3 | 163
Cc1ccc(C(=O)OCC(=O)NC2CCCC(C)C2C)cc1S(=O)(=O)N1CCCCC1 (stereo not given) | < 0 | 136
Cc1c(Cl)c(C(F)F)nn1CC(=O)NC1C(=O)N2C(C(=O)O)=C(CSc3nnnn3C)CSC12 (stereo not given) | 121 | 151
Cc1ccccc1NC(=O)COC(=O)c1cc(S(=O)(=O)N2CCOCC2)ccc1C | 23.2 | 34.5
CC1CCCN(c2ccc([N+](=O)[O-])s2)C1 (stereo not given) | < 0 | 241
Cc1c(C(=O)N(C)C)sc(NC(=O)c2cccc([N+](=O)[O-])c2)c1C#N | 51.5 | 13.8
CC1C/C(=C/c2ccncc2)C(=O)/C(=C/c2ccncc2)C1 (stereo not given) | 54.5 | < 0
O=C(NC12CC3CC(CC(C3)C1)C2)c1ccc(Br)o1 | < 0 | 171
CC(C(=O)NC1C(=O)N2C(C(=O)O)=C(CSc3nnnn3C)CSC12)n1cc(Cl)cn1 (stereo not given) | 23.7 | 174
O=C(NCc1ccncc1)c1cccc(S(=O)(=O)N2CCc3ccccc32)c1 | 39.9 | < 0
COc1ccc(OCc2n(CC(=O)OC3CC(C)CCC3C(C)C)c3ccccc3[n+]2C)cc1.[Cl-] (stereo not given) | 58.8 | 139
C/C(=C\c1ccccc1)C(=O)NCc1ccco1 | 134 | 111
Cc1ccc(OCCCC(=O)NNC(=O)c2ccncc2)cc1 | 10.4 | 268
CC(C)(C)c1nnc(NC(=S)Nc2ccccc2)s1 | < 0 | 258

SMILES | area under cytotoxicity dose-response curve [1] | area under intracellular growth-inhibition dose-response curve [2]
Cc1nc(SCc2ccccc2)c2oc3ccccc3c2n1 | 34.5 | 143
CCCNC(=O)OCC12CC3CC(CC(C3)C1)C2 | 228 | 237
O=C(NCCc1ccc(F)cc1)NC12CC3CC(CC(C3)C1)C2 | 60.1 | 190
CCc1ccc(/C(C)=N/NC(=O)c2ccc(-n3cnnn3)cc2)cc1 | 24.6 | < 0
O=C(CCCOc1ccc(Cl)cc1Cl)Nc1ccccc1C(=O)O | 0.729 | 83.7
COc1cccc2c1C(=O)c1c(O)c3c(c(O)c1C2=O)C[C@@](O)(C(=O)CO)C[C@@H]3O[C@H]1C[C@H](N)[C@H](O)[C@H](C)O1.Cl | 147 | 117
O=C(N/N=C/c1ccccc1C(=O)O)c1ccncc1 | 37.2 | 266
CC[C@H]1OC(=O)[C@H](C)[C@@H](O[C@H]2C[C@@](C)(OC)[C@@H](O)[C@H](C)O2)[C@H](C)[C@@H](O[C@@H]2O[C@H](C)C[C@H](N(C)C)[C@H]2O)[C@](C)(O)C[C@@H](C)C(=NOCOCCOC)[C@H](C)[C@@H](O)[C@]1(C)O | 7.74 | 204
CCC[C@@H](CN1CCC[C@H]1CN1C(N)=NC[C@H]1CC(C)C)N1C[C@@H]([C@H](C)CC)N(CCc2ccc(Cl)c(Cl)c2)C1=N | 13.4 | 129
Cc1c(Cc2ccccc2)c(NCCCO)n2c(nc3ccccc32)c1C#N | < 0 | 148
Cc1c(Cl)cnn1CC(=O)NC1C(=O)N2C(C(=O)O)=C(CSc3nnnn3C)CSC12 (stereo not given) | 18.6 | 168
CC(NC(=O)c1ccccc1F)c1ccccc1 (stereo not given) | 53.4 | 95.2
NC(=S)N/N=C/c1cccc(Br)c1 | 35 | 270
Cc1ccc(C(=O)Sc2cccccc2=O)cc1 | 143 | < 0
O=C(NCCc1c[nH]c2ccccc12)c1cc([N+](=O)[O-])cc([N+](=O)[O-])c1 | < 0 | 257
CC(C)(C)C(=O)/C(=C/c1ccncc1)n1cncn1 | 106 | 32
CCOC(=O)N=Nc1c2nc3nonc3[nH]c-2c2ccccc12 | 186 | 136
CC1CCC(C(C)C)C(OC(=O)C[n+]2c(-c3ccccc3)n(C)c3ccccc32)C1.[Cl-] (stereo not given) | 56.7 | 202
CN(C)S(=O)(=O)c1ccc(C(=O)OCC(=O)NC(=O)NC2CCCC2)cc1 | < 0 | 165
Cc1cs/c(=N\C(=O)c2ccccc2)n1C | 57.5 | 102
